Measured values from patent US10724949B2, “Cuvette for detecting bacteria and determining their susceptibility to antibiotics” (BacterioScan LTD., priority 2005, dated 2020).

Tested on: E. coli
Experiment: Light scattering (speckles image difference plots) test of bacterial susceptibility to an antibiotic agent in a filtered urine sample
Assay type: cell-based
Conditions: gentamicin 1% in test cuvette
Description: Background signal originated by particles suspended in the sample of fluid that are larger than the bacteria are excluded by mechanically filtering according to the method of the present invention. However there are sources and light scatterers other than the bacteria that can contribute a stationary background signal. Such signals are typically originated by stationary particles present within the illuminated space, impurity of the light source, defects in, and or particles contaminating, the optical components. Therefore a difference plot is computed for excluding stationary background according to a preferred embodiment of the present invention. The intensity measured in every pixel of a speckles image is subtracted from the intensity measured in the same pixel of a preceding speckles image to form a difference plot. […]
For determining the susceptibility of bacteria to an antibiotic agent, an average value of at least two averaged derivatives computed first for a test cuvette, immediately following the introduction of an antibiotic agent, are compared to an average of the same number of averaged derivatives computed for speckles images received a few minutes later, preferably after more than 5 minutes. The antibiotic agent for which the difference between these averaged derivatives is the larger is determined. […]

## gentamicin
Urine containing E. coli 10^5 CFU/ml, difference plot 30 minutes later vs immediately following introduction (FIG. 9B, 9C)
  concentration of non-stationary scatterers (difference plots of speckles images): significant reduction
Urine containing E. coli, a few minutes after the introduction of the antibiotics (FIG. 9D)
  values of the averaged derivative of the concentration of scatterers in time (normalised by their maximal value): significant reduction (of a few tens of percents)
